According to US20210221866A1, “PROTEASE-RESISTANT LIPIDATED GLP-1 ANALOGS” (MEDIMMUNE LIMITED, priority 2015, published 2021):
Like-named read-outs stand apart in the source and are kept apart here. Numbered stars: 1 amine (or outer) side, 2 acyl side, 3 side chain; on linkers, the order of the positions; unused ones are H or OH. Square brackets hold non-standard residues; d marks the D form. Side chains are listed from the residue outwards. Peptide text beside a SMILES is read from it. * marks the point of attachment. γGlu = O=C(O)[C@H](CCC(=O)[*:2])N[*:1]; αMeF = C[C@](N)(Cc1ccccc1)C(=O)O; αMeK = C[C@](N)(CCCCN)C(=O)O; Lauroyl = CCCCCCCCCCCC(=O)*; αMeS = C[C@](N)(CO)C(=O)O; AEEA = NCCOCCOCC(=O)O; Aib = CC(C)(N)C(=O)O

How the values were obtained:
[1] = target: T1, human glucagon receptor (GCGR) (Homo sapiens, UniProt P47871); assay: cAMP assay, human GCGR cells; assay type: cell-based; conditions: Table 9, bis-lipidated peptides
T1 construct: expressed in transfected cells; host or cells: HEK293 cells or CHO cells
Method in brief: (§1)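 Peptide-stimulated cAMP measured by two-step HTRF after a 30 min room-temperature incubation with receptor-expressing cells (hGLP-1R, hGIPR at 1×10^5 cells/ml; hGCGR at 2×10^5 cells/ml). Duplicate dilutions; EC50 from 4-parameter logistic fit of % Delta F.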

[2] = target: T2, human glucose-dependent insulinotropic peptide receptor (GIPR) (Homo sapiens, UniProt P48546); assay: cAMP assay, human GIPR cells; assay type: cell-based; conditions: Table 9, bis-lipidated peptides
T2 construct: expressed in transfected cells; host or cells: HEK293 cells or CHO cells
T2 sequence (P48546 22-466): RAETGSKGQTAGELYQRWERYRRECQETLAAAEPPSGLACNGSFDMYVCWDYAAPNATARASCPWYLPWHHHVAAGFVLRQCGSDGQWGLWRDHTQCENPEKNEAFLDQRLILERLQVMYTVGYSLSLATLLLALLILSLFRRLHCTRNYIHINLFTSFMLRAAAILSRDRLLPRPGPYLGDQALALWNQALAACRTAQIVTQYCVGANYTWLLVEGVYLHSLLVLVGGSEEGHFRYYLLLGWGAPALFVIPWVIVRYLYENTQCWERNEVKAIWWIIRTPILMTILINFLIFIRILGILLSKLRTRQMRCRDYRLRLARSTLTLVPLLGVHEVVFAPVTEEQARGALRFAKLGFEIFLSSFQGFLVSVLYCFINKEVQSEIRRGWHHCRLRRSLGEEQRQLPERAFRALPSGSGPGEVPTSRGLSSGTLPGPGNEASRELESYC
Method in brief: as §1

[3] = target: T3, porcine pancreatic pepsin (Sus scrofa, UniProt P00791); assay: Proteolytic resistance to pepsin (% remaining intact peptide, RP-HPLC AUC); assay type: in vitro ADME; conditions: t = 0; 37° C., pH 2.0
T3 construct: purchased Sigma P7012
Description: Pepsin: Lyophilized porcine pancreatic pepsin (Sigma: P7012) was reconstituted to afford a solution of 200 μg/mL (˜500 units/mL) in assay buffer (0.1 M HCl, pH 2.0) to give the enzyme stock solution. […] Ratio enzyme (units):peptide (moles) ˜1:6. […] Ratio enzyme (units):peptide (μmoles) ˜2:1.
Lyophilized porcine pancreatic pepsin (Sigma: P7012) was reconstituted to […] (˜500 units/mL) in assay buffer ([…], pH 2.0) to give the enzyme stock solution.

recombinant Neprilysin = target: T4, recombinant Neprilysin (Homo sapiens, UniProt P08473); assay: Proteolytic resistance to neprilysin (% remaining peptide, RP-HPLC AUC); assay type: in vitro ADME; conditions: t = 0 (baseline); 37° C., pH 8.3; enzyme:peptide ~1:33 for non-lipidated, ~1:2.5 for lipidated peptides
T4 construct: purchased R&D Systems 1182-ZNC-010
Description: Ratio enzyme (units):peptide (moles) ˜1:33. […] Ratio enzyme (units):peptide (moles) ˜1:2.5.
15 μL aliquots (˜15 ng initial peptide) of the peptide-enzyme mixture were periodically withdrawn (t=0, 30 mins, 1 hr, 2 hr, 4 hr, 8 hr, 24 hr) and quenched immediately by addition to an equal volume (15 μL) of 5% TFA (v/v) in 1:1 water/acetonitrile to arrest proteolytic activity. 20 μL aliquots (˜10 ng initial peptide) were analyzed by LC/MS and/or analytical RP-HPLC as follows: LC/MS method: Agilent Polaris C8-A column (4.6×100 mm, 3 micron) eluted with a linear binary gradient of 10-90% MeCN (0.1% TFA v/v) in water (0.1% TFA v/v) over 30 mins at 1.5 mL min-1 at ambient temperature with detection by both UV absorption at 210 nm and ionization using a Waters 3100 mass detector (ESI+ mode). Peptide fragments deriving from enzymatic hydrolysis were identified by molecular weight, allowing location of the site of cleavage. Analytical RP-HPLC method: Agilent Polaris C8-A column (4.6×100 mm, 3 micron) eluted with a linear binary gradient of 10-90% MeCN (0.1% TFA v/v) in water (0.1% TFA v/v) over either 10 or 15 mins at 1.5 mL min^−1 at 40° C. with detection by UV absorption at 210 nm. Manual integration (AUC) allowed estimation of remaining intact peptide over the time course of the experiment.
25 μL aliquots (˜6 μg initial peptide) were analyzed by LC/MS and/or analytical RP-HPLC as follows: LC/MS method: Agilent Polaris C8-A column (4.6×100 mm, 3 micron) eluted with a linear binary gradient of 10-90% MeCN (0.1% TFA v/v) in water (0.1% TFA v/v) over 30 mins at 1.5 mL min^−1 at ambient temperature with detection by both UV absorption at 210 nm and ionization using a Waters 3100 mass detector (ESI^+ mode). Peptide fragments deriving from enzymatic hydrolysis were identified by molecular weight, allowing location of the site of cleavage. Analytical RP-HPLC method: Agilent Polaris C8-A column (4.6×100 mm, 3 micron) eluted with a linear binary gradient of 10-90% MeCN (0.1% TFA v/v) in water (0.1% TFA v/v) over either 10 or 15 mins at 1.5 mL min^−1 at 40° C. with detection by UV absorption at 210 nm. Manual integration (AUC) allowed estimation of remaining intact peptide over the time course of the experiment.

[4] = tested on: FASSIF/Pancreatin® activated with 100 μg/mL human enterokinase; assay: Proteolytic resistance to FASSIF/Pancreatin following full zymogen activation with enterokinase; assay type: in vitro ADME; conditions: t = 0; 37° C.
Description: A fresh suspension of FASSIF/P (Fasted-State Simulated Intestinal Fluid+USP Pancreatin®) was prepared according to that described by Galia, Nicolaides, Hörter, Lobenberg, Reppas and Dressman: Pharm. […] To the resulting preparation was added human enterokinase (100 μg/mL) to ensure the potential for full zymogen activity of the mixture which was used immediately without storage. Peptides for evaluation (1.0 mg, ˜250 nmoles) were initially dissolved in pre-warmed FASSIF without Pancreatin® (200 μL) to which was added pre-warmed fresh FASSIF/Pancreatin® ([…]) to initiate potential digestion. Following momentary vortexing of the Eppendorf reaction tube the mixture was incubated at 37° C. in a thermostatic waterbath for the duration of the experiment. 25 μL aliquots of the co-incubated peptide-enzyme mixture were periodically withdrawn (t=0, 5 m, 10 m, 15 m, 30 m, 1 h, 2 h) and quenched immediately by addition to a solution of 10% TFA in 1:1 water/acetonitrile (75 μL) to arrest proteolytic activity.

[5] = tested on: recombinant α-chymotrypsin; assay: Proteolytic resistance to α-chymotrypsin (% remaining intact peptide, RP-HPLC AUC); conditions: t = 0; 37° C., pH 7.8
Description: (§3) Ratio enzyme (units):peptide (μmoles) ˜1:33. […] Ratio enzyme (units):peptide (μmoles) ˜1:2.5.
(§4) 15 μL aliquots (˜15 μg initial peptide) of the peptide-enzyme mixture are periodically withdrawn (t=0, 30 mins, 1 hr, 2 hr, 4 hr, 8 hr, 24 hr) and quenched immediately by addition to an equal volume (15 μL) of 5% TFA (v/v) in 1:1 water/acetonitrile to arrest proteolytic activity. 20 μL aliquots (˜10 μg initial peptide) are analysed by LC/MS and/or analytical RP-HPLC as follows: LC/MS method: Agilent Polaris C8-A column (4.6×100 mm, 3 micron) elutes with a linear binary gradient of 10-90% MeCN (0.1% TFA v/v) in water (0.1% TFA v/v) over 30 mins at 1.5 mL min^−1 at ambient temperature with detection by both UV absorption at 210 nm and ionization using a Waters 3100 mass detector (ESI^+ mode). Peptide fragments deriving from enzymatic hydrolysis are identified by molecular weight, allowing location of the site of cleavage. Analytical RP-HPLC method: Agilent Polaris C8-A column (4.6×100 mm, 3 micron) elutes with a linear binary gradient of 10-90% MeCN (0.1% TFA v/v) in water (0.1% TFA v/v) over either 10 or 15 mins at 1.5 mL min^−1 at 40° C. with detection by UV absorption at 210 nm. Manual integration (AUC) allows estimation of remaining intact peptide over the time course of the experiment.
(§5) 25 μL aliquots (˜6 μg initial peptide) are analysed by LC/MS and/or analytical RP-HPLC as follows: LC/MS method: Agilent Polaris C8-A column (4.6×100 mm, 3 micron) elutes with a linear binary gradient of 10-90% MeCN (0.1% TFA v/v) in water (0.1% TFA v/v) over 30 mins at 1.5 mL min^−1 at ambient temperature with detection by both UV absorption at 210 nm and ionization using a Waters 3100 mass detector (ESI±mode). Peptide fragments deriving from enzymatic hydrolysis are identified by molecular weight, allowing location of the site of cleavage. Analytical RP-HPLC method: Agilent Polaris C8-A column (4.6×100 mm, 3 micron) elutes with a linear binary gradient of 10-90% MeCN (0.1% TFA v/v) in water (0.1% TFA v/v) over either 10 or 15 mins at 1.5 mL min^−1 at 40° C. with detection by UV absorption at 210 nm. Manual integration (AUC) allows estimation of remaining intact peptide over the time course of the experiment.

[6] = as above; conditions: recombinant α-chymotrypsin in assay buffer, pH 7.8
Description: as §3, §4, §5

[7] = target: porcine pancreatic trypsin (Sus scrofa, UniProt P00761); assay: Proteolytic resistance to trypsin (% remaining intact peptide, RP-HPLC AUC); assay type: in vitro ADME; conditions: t = 0; 37° C., pH 7.8
Description: Trypsin: Lyophilized porcine pancreatic trypsin (Sigma: T1426) was reconstituted to afford a solution of 100 μg/mL (˜300 units/mL) in assay buffer (50 mM Tris, 10 mM CaCl2), 150 mM NaCl, 1 mM HCl, adjusted to pH 7.8) to give the enzyme stock solution. […] Ratio enzyme (units):peptide (μmoles) ˜1:11. […] Ratio enzyme (units):peptide (μ moles) ˜1.2:1.
Lyophilized porcine pancreatic trypsin (Sigma: T7409) was reconstituted to 200 μg/mL (˜300 units/mL) in assay buffer (50 mM Tris, 10 mM CaCl2), 150 mM NaCl, 1 mM HCl, adjusted to pH 7.8) to give the enzyme stock solution. […] 15 μL aliquots (˜15 μg initial peptide) of the peptide-enzyme mixture were periodically withdrawn (t=0, 30 mins, 1 hr, 2 hr, 4 hr, 8 hr, 24 hr) and quenched immediately by addition to an equal volume (15 μL) of 5% TFA (v/v) in 1:1 water/acetonitrile to arrest proteolytic activity. 20 μL aliquots (˜10 μg initial peptide) were analysed by LC/MS and/or analytical RP-HPLC as follows: LC/MS method: Agilent Polaris C8-A column (4.6×100 mm, 3 micron) eluted with a linear binary gradient of 10-90% MeCN (0.1% TFA v/v) in water (0.1% TFA v/v) over 30 mins at 1.5 mL min^−1 at ambient temperature with detection by both UV absorption at 210 nm and ionization using a Waters 3100 mass detector (ESI^+ mode). Peptide fragments deriving from enzymatic hydrolysis were identified by molecular weight, allowing location of the site of cleavage. Analytical RP-HPLC method: Agilent Polaris C8-A column (4.6×100 mm, 3 micron) eluted with a linear binary gradient of 10-90% MeCN (0.1% TFA v/v) in water (0.1% TFA v/v) over either 10 or 15 mins at 1.5 mL min^−1 at 40° C. with detection by UV absorption at 210 nm. Manual integration (AUC) allowed estimation of remaining intact peptide over the time course of the experiment.
Lyophilized porcine pancreatic trypsin (Sigma: T7409) was reconstituted to 200 μg/mL (˜300 units/mL) in assay buffer (50 mM Tris, 10 mM CaCl2), 150 mM NaCl, 1 mM HCl, adjusted to pH 7.8) to give the enzyme stock solution. […] 25 μL aliquots (˜17 μg initial peptide) of the peptide-enzyme mixture were periodically withdrawn (t=0, 30 mins, 1 hr, 2 hr, 4 hr, 8 hr, 24 hr) and quenched immediately by addition to an equal volume (25 μL) of 5% TFA (v/v) in 1:1 water/acetonitrile to arrest proteolytic activity. 25 μL aliquots (˜8 μg initial peptide) were analysed by LC/MS and/or analytical RP-HPLC as follows: LC/MS method: Agilent Polaris C8-A column (4.6×100 mm, 3 micron) eluted with a linear binary gradient of 10-90% MeCN (0.1% TFA v/v) in water (0.1% TFA v/v) over 30 mins at 1.5 mL min^−1 at ambient temperature with detection by both UV absorption at 210 nm and ionization using a Waters 3100 mass detector (ESI^+ mode). Peptide fragments deriving from enzymatic hydrolysis were identified by molecular weight, allowing location of the site of cleavage. Analytical RP-HPLC method: Agilent Polaris C8-A column (4.6×100 mm, 3 micron) eluted with a linear binary gradient of 10-90% MeCN (0.1% TFA v/v) in water (0.1% TFA v/v) over either 10 or 15 mins at 1.5 mL min^−1 at 40° C. with detection by UV absorption at 210 nm. Manual integration (AUC) allowed estimation of remaining intact peptide over the time course of the experiment.

[8] = tested on: FASSIF/P (Fasted-State Simulated Intestinal Fluid+USP Pancreatin®); assay: Proteolytic resistance to fasted-state simulated intestinal fluid (FASSIF/Pancreatin); assay type: in vitro ADME; conditions: t = 0; 37° C.
Description: (§2) A fresh suspension of FASSIF/P (Fasted-State Simulated Intestinal Fluid+USP Pancreatin®) was prepared according to that described by Galia, Nicolaides, Hörter, Lobenberg, Reppas and Dressman: Pharm. Res. 15 (1998) 698-705. The resulting preparation is proteolytically equivalent to ˜375 units/mL (375 kU/L) and was used immediately without storage. Peptides for evaluation (1.0 mg, ˜250 nmoles) were initially dissolved in pre-warmed FASSIF without Pancreatin® (200 μL) to which was added pre-warmed fresh FASSIF/Pancreatin® (100 μL) to initiate potential digestion. Following momentary vortexing of the Eppendorf reaction tube the mixture was incubated at 37° C. in a thermostatic waterbath for the duration of the experiment. 25 μL aliquots of the co-incubated peptide-enzyme mixture were periodically withdrawn (t=0, 5 m, 10 m, 15 m, 30 m, 1 h, 2 h) and quenched immediately by addition to a solution of 10% TFA in 1:1 water/acetonitrile (75 μL) to arrest proteolytic activity.

[9] = as above; assay type: in vitro ADME; conditions: 37° C., read-out: Percentage remaining intact peptide (AUC by RP-HPLC) upon incubation with fasted-state simulated intestinal fluid (FASSIF/P); for remaining at 10 min, […]: t = 10 m; for remaining at 0.25 h, […]: t = 15 m; for remaining at 0.5 h, […]: t = 30 m; for remaining at 2 h, […]: t = 2 h
Description: as §2

[10] = target: T5, human GLP-1 receptor (GLP-1R) (Homo sapiens, UniProt P43220); assay: cAMP assay, human GLP-1R cells; assay type: cell-based; conditions: Table 9, bis-lipidated peptides; mean of n1 and n2; read-out: Primary assay EC50 Mean pM GLP-1R
T5 construct: expressed in transfected cells; host or cells: HEK293 cells or CHO cells
Method in brief: as §1

GLP-1R (INS1e cells) = target: T6, GLP-1R (INS1e cells) (Rattus norvegicus, UniProt P32301); assay: INS1e assay, cAMP activity at GLP-1R; assay type: cell-based; conditions: Table 10, bis-lipidated peptides, mean of n1 and n2, read-out: INS1e assay EC50 Mean pM GLP-1R
T6 construct: endogenous in cells; host or cells: INS1e cells
T6 sequence (P32301 22-463): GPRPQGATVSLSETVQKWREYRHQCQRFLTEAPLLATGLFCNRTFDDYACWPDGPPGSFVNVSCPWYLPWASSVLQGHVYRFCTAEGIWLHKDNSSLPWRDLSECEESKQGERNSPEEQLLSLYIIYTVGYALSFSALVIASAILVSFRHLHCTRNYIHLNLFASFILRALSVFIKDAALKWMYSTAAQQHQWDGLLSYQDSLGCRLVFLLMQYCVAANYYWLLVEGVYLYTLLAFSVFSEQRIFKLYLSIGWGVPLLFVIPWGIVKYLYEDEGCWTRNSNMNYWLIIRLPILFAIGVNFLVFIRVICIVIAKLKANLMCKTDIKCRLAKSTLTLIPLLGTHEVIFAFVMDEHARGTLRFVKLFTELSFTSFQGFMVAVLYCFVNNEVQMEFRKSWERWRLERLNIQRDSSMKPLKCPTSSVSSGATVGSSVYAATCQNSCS

[11] = first replicate, read-out: Primary assay EC50 Gluc-R (n1)
[12] = second replicate, read-out: Primary assay EC50 Gluc-R (n2)
[13] = first replicate, read-out: Primary assay EC50 GIP-R (n1)
[14] = second replicate, read-out: Primary assay EC50 GIP-R (n2)

T1 sequence (P47871 26-477): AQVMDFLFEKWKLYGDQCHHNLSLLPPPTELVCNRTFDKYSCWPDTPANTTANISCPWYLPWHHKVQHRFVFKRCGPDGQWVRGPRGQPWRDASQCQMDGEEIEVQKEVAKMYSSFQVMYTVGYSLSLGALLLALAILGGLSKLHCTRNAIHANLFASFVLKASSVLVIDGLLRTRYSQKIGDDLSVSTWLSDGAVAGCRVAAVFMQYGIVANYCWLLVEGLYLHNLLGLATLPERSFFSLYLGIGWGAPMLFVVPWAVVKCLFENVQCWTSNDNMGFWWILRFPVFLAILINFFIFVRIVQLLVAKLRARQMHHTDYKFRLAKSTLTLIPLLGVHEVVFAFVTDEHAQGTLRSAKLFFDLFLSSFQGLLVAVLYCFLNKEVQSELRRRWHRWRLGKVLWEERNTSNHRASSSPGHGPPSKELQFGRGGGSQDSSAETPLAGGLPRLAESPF
T5 sequence (P43220 24-463): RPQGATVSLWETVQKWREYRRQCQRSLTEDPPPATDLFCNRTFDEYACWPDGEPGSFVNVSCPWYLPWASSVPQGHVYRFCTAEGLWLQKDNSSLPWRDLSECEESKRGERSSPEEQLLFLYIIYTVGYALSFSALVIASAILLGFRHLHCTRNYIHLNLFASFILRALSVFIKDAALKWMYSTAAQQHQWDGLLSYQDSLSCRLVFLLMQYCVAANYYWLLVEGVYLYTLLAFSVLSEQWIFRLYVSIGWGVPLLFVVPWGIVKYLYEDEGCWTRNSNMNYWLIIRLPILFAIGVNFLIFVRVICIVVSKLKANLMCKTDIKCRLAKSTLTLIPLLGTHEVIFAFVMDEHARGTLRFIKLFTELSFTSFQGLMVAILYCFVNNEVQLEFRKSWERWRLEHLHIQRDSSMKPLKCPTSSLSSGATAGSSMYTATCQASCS
T3 sequence (P00791 60-385): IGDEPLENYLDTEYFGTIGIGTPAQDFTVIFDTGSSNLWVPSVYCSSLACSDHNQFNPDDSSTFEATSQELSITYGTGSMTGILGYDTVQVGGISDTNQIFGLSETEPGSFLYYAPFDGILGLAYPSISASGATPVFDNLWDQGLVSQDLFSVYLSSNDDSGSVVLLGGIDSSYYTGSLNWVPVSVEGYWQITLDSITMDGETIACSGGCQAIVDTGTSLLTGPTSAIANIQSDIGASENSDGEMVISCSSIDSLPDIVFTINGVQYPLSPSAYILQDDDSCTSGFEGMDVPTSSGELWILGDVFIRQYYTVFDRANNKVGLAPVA
T4 sequence (P08473 whole entry): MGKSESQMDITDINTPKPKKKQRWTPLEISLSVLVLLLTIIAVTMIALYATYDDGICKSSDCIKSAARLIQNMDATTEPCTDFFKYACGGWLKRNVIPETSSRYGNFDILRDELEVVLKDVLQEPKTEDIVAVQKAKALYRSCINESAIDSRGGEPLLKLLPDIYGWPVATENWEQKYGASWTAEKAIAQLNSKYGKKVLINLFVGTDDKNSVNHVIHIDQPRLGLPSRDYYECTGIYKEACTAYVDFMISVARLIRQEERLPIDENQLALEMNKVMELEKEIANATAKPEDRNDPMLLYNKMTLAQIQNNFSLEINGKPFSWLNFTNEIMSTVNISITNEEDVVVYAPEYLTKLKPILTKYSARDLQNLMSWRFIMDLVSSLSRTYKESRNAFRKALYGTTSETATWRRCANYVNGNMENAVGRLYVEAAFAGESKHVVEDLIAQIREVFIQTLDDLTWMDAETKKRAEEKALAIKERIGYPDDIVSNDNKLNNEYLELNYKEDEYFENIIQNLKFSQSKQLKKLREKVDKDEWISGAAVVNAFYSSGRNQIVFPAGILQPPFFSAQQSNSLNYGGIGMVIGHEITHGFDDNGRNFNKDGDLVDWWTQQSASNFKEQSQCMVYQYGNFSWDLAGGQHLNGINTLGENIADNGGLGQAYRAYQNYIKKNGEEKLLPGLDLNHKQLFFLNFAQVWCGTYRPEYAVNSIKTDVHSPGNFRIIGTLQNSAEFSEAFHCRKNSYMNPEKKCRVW
porcine pancreatic trypsin, sequence (P00761 9-231): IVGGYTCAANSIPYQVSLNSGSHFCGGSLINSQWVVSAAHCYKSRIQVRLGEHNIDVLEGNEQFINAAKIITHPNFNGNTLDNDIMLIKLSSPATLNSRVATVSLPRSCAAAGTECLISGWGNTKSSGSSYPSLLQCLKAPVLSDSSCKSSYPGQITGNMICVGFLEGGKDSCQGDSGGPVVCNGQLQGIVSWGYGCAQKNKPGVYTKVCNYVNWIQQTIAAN

Row | SMILES | EC50 [1, 11] [nM] | EC50 [1, 12] [nM] | EC50 [2, 13] [nM] | EC50 [2, 14] [nM] | Percentage remaining intact peptide (AUC by RP-HPLC) upon incubation with FASSIF activated with 100 μg/mL enterokinase [4] [%] | Percentage remaining intact peptide (AUC by RP-HPLC) upon incubation with fasted-state simulated intestinal fluid (FASSIF/P) [8] [%] | remaining at 10 min, […] [9] [%] | remaining at 0.25 h, […] [9] [%] | remaining at 0.5 h, […] [9] [%] | remaining at 2 h, […] [9] [%] | also measured
1 | CCCCCCCCCCCC(=O)N[C@@H](CCC(=O)NCCOCCOCC(=O)NCCOCCOCC(=O)NCCCC[C@H](NC(=O)[C@H](C)NC(=O)[C@@H](NC(=O)[C@H](Cc1ccccc1)NC(=O)[C@H](CCC(=O)O)NC(=O)[C@](C)(CCCCN)NC(=O)[C@H](C)NC(=O)[C@H](C)NC(=O)[C@H](CCC(=O)O)NC(=O)CNC(=O)[C@H](CCC(=O)O)NC(=O)[C@H](CC(C)C)NC(=O)[C@H](CCCCNC(=O)COCCOCCNC(=O)COCCOCCNC(=O)CC[C@H](NC(=O)CCCCCCCCCCC)C(=O)O)NC(=O)[C@H](CO)NC(=O)[C@](C)(CO)NC(=O)[C@@H](NC(=O)[C@H](CC(=O)O)NC(=O)[C@H](CO)NC(=O)[C@@H](NC(=O)[C@](C)(Cc1ccccc1)NC(=O)[C@H](CO)NC(=O)CNC(=O)[C@H](CCC(=O)O)NC(=O)C(C)(C)NC(=O)[C@@H](N)Cc1c[nH]cn1)[C@@H](C)O)C(C)C)[C@@H](C)CC)C(=O)N[C@H](C(=O)N[C@H](C(=O)N[C@@H](CCC(=O)O)C(=O)NCC(=O)NCC(N)=O)C(C)C)C(C)C)C(=O)O [compound 263] (H-H[Aib]EGS[αMeF]TSDV[αMeS]SK([AEEA-AEEA-γGlu-Lauroyl])LEGEAA[αMeK]EFIAK([AEEA-AEEA-γGlu-Lauroyl])VVEGG-NH2) | ≥ 21.5 | ≥ 21.5 | ≥ 21.5 | ≥ 21.5 | 100 | 100 | 85.6 | 76.8 | 57.6 | 7.8 | Percentage remaining intact peptide (AUC by RP-HPLC) upon incubation with pepsin [3]: 100%; Percentage remaining peptide (AUC at specified time-point by RP-HPLC) upon incubation with neprilysin, t = 0 (recombinant Neprilysin): 100%; Percentage remaining intact peptide (AUC by RP-HPLC) upon incubation with α-chymotrypsin [5]: 100%; remaining at 0.5 h [6]: 88.1%; remaining at 1 h [6]: 93.9%; remaining at 4 h [6]: 93.5%; remaining at 8 h [6]: 95%; remaining at 24 h [6]: 92.3%; Percentage remaining intact peptide (AUC by RP-HPLC) upon incubation with trypsin [7]: 100.0%
2 | CCCCCCCCCCCC(=O)N[C@@H](CCC(=O)NCCOCCOCC(=O)NCCOCCOCC(=O)NCCCC[C@H](NC(=O)[C@H](C)NC(=O)[C@@H](NC(=O)[C@](C)(Cc1ccccc1)NC(=O)[C@H](CCC(=O)O)NC(=O)[C@](C)(CCCCN)NC(=O)[C@H](C)NC(=O)[C@H](C)NC(=O)[C@H](CCC(=O)O)NC(=O)CNC(=O)[C@H](CCC(=O)O)NC(=O)[C@H](CC(C)C)NC(=O)[C@H](CCCCNC(=O)COCCOCCNC(=O)COCCOCCNC(=O)CC[C@H](NC(=O)CCCCCCCCCCC)C(=O)O)NC(=O)[C@H](CO)NC(=O)[C@](C)(CO)NC(=O)[C@@H](NC(=O)[C@H](CC(=O)O)NC(=O)[C@H](CO)NC(=O)[C@@H](NC(=O)[C@](C)(Cc1ccccc1)NC(=O)[C@H](CO)NC(=O)CNC(=O)[C@H](CCC(=O)O)NC(=O)C(C)(C)NC(=O)[C@@H](N)Cc1c[nH]cn1)[C@@H](C)O)C(C)C)[C@@H](C)CC)C(=O)N[C@H](C(=O)N[C@H](C(=O)N[C@@H](CCC(=O)O)C(=O)NCC(=O)NCC(N)=O)C(C)C)C(C)C)C(=O)O [compound 405] (H-H[Aib]EGS[αMeF]TSDV[αMeS]SK([AEEA-AEEA-γGlu-Lauroyl])LEGEAA[αMeK]E[αMeF]IAK([AEEA-AEEA-γGlu-Lauroyl])VVEGG-NH2; N-terminus assumed) | ≥ 21.5 | ≥ 21.5 | ≥ 21.5 | ≥ 21.5 | 100 | 100 | 99 | 99.4 | 95.7 | 60.4 | EC50 [10]: 3.9 pM; EC50 (GLP-1R (INS1e cells)): 116 pM; remaining at 5 min, […] ([9]; t = 5 m): 99.5%; remaining at 1 h, […] ([9]; t = 1 h): 88.7%
